Test results as given in patent publication US20230393140A1, “BINDING ASSAYS INVOLVING A PLURALITY OF SYNTHETIC COMPOUNDS, TARGETS, AND COUNTER TARGETS” (SRI International, priority 2020, published 2023).
Numbered stars: 1 amine (or outer) side, 2 acyl side, 3 side chain; on linkers, the order of the positions; unused ones are H or OH. Square brackets hold non-standard residues; d marks the D form. Peptide text beside a SMILES is read from it. * marks the point of attachment. 5FAM = O=C1OC2(c3ccc(O)cc3Oc3cc(O)ccc32)c2ccc(C(=O)*)cc21; NHCH2C6H4(4-CH2CONH2) = NC(=O)Cc1ccc(CN*)cc1; X1 = O=C(Cc1ccc(CN[*:1])cc1)[*:2]

target: T1, ASGPR (Homo sapiens, UniProt P07306); assay: MST binding affinity of resynthesized NNP hits to ASGPR; conditions: read-out: KD (nM) [95% conf. int]; MST; NNP1 library hit; target ASGPR; one-site binding model
T1 construct: purchased R&D Systems, Inc. 4394-AS
T1 sequence (P07306 1-291): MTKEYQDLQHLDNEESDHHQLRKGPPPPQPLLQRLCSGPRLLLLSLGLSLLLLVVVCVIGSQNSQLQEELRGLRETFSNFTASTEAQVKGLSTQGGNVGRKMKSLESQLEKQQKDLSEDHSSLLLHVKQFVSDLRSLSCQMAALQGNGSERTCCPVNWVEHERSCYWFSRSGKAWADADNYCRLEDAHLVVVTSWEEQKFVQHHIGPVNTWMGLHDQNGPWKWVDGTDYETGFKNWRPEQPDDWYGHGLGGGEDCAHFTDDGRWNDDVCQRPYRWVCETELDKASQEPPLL
Method: (§1) Hit binding affinity to various targets were determined using Microscale Thermophoresis (MST). MST experiments were performed on a Monolith NT.115pico (NanoTemper Technologies GmbH, Munich, Germany). Measurements were performed at room temperature, in triplicate with incubation periods of 15, 30 and 45 minutes. […] Targets were labeled using Nanotemper Monolith 2nd Generation Protein Labeling Kits. RED-MALEIMIDE (Maleimide-647-dye) labeling kit was used for K-Ras and RED-NHS (NHS-647-dye) labeling kit was used for IL-6, IL-6R, TNFα and ASGPR. The buffer for the ASGPR contained 20 mM HEPES pH 7.4, 150 mM NaCl, 10 mM MgCl2, 2 mM CaCl2, 0.05% Pluronic F-127, and 1 mM DTT; for IL-6 contained 20 mM HEPES pH 7.4, 150 mM KCl, 10 mM MgCl2, and 0.1% Pluronic F-127; for the soluble IL-6 receptor 20 mM HEPES pH 7.4, 150 mM NaCl, 10 mM MgCl2, and 0.05% Tween-20; for K-Ras 20 mM HEPES pH 7.4, 150 mM NaCl, 10 mM MgCl2, 0.05% Tween-20 and 1 mM DTT; for TNFα 10 mM HEPES pH 7.4, 150 mM NaCl, 10 mM MgCl2, 0.05% Polysorbate-20. Triplicate data was analyzed using MO.AffinityAnalysis software (NanoTemper Technologies GmbH).

Row | SMILES | Kd
1 | CC(C)C[C@H](NC(=O)[C@@H](CCCNC(=N)N)NC(=O)[C@@H](CCCCN)NC(=O)[C@@H](CCC(=O)O)NC(=O)[C@@H](Cc1ccccc1)NC(=O)Cc1ccc(CNC(=O)[C@H](Cc2ccccc2)NC(=O)[C@@H](CO)NC(=O)[C@@H](CCC(=O)O)NC(=O)[C@H]2CCCN2C(=O)[C@@H](CC(C)C)NC(=O)c2ccc3c(c2)C(=O)OC32c3ccc(O)cc3Oc3cc(O)ccc32)cc1)C(=O)NCc1ccc(CC(=O)NCC(=O)N2CCC[C@@H]2C(=O)N[C@H](CCCNC(=N)N)C(=O)N[C@H](CO)C(=O)N[C@@H](Cc2ccccc2)C(=O)NCc2ccc(CC(=O)N3CCC[C@@H]3C(=O)N[C@H](CCCCN)C(=O)N[C@H](Cc3ccc(O)cc3)C(=O)N[C@H](CCCNC(=N)N)C(=O)N[C@@H](Cc3ccccc3)C(=O)NCc3ccc(CC(=O)N[C@H](CCCNC(=N)N)C(=O)N[C@H](Cc4ccccc4)C(=O)N4CCC[C@@H]4C(=O)N[C@@H](C(=O)NCC(=O)NCc4ccc(CC(=O)N[C@H](CC(C)C)C(=O)N5CCC[C@@H]5C(=O)N[C@H](CCCNC(=N)N)C(=O)N[C@@H](C(=O)NCC(=O)NCc5ccc(CC(N)=O)cc5)[C@H](C)O)cc4)C(C)C)cc3)cc2)cc1 [ASGPR-9-3] (5FAM-[dL][dP][dE][dS]F[X1][dF][dE][dK][dR]L[X1]G[dP][dR][dS]F[X1][dP][dK][dY][dR]F[X1][dR][dF][dP][dV]G[X1][dL][dP][dR][dT]G-{NHCH2C6H4(4-CH2CONH2)}) | 330 nM
2 | CC(C)C[C@H](NC(=O)[C@@H](CCCNC(=N)N)NC(=O)[C@@H](CCCCN)NC(=O)[C@@H](CCC(=O)O)NC(=O)[C@@H](Cc1ccccc1)NC(=O)Cc1ccc(CNC(=O)[C@H](Cc2ccccc2)NC(=O)[C@@H](CO)NC(=O)[C@@H](CCC(=O)O)NC(=O)[C@H]2CCCN2C(=O)[C@@H](CC(C)C)NC(=O)c2ccc3c(c2)C(=O)OC32c3ccc(O)cc3Oc3cc(O)ccc32)cc1)C(=O)NCc1ccc(CC(=O)N[C@H](Cc2c[nH]cn2)C(=O)N[C@H](CO)C(=O)N2CCC[C@@H]2C(=O)N[C@H](CCCNC(=N)N)C(=O)N[C@H](C(=O)NCc2ccc(CC(=O)N3CCC[C@@H]3C(=O)N[C@H](CCCCN)C(=O)N[C@H](Cc3ccc(O)cc3)C(=O)N[C@H](CCCNC(=N)N)C(=O)N[C@@H](Cc3ccccc3)C(=O)NCc3ccc(CC(=O)N[C@H](CCCNC(=N)N)C(=O)N[C@H](Cc4ccccc4)C(=O)N4CCC[C@@H]4C(=O)N[C@@H](C(=O)NCC(=O)NCc4ccc(CC(=O)N[C@H](CC(C)C)C(=O)N5CCC[C@@H]5C(=O)N[C@H](CCCNC(=N)N)C(=O)N[C@@H](C(=O)NCC(=O)NCc5ccc(CC(N)=O)cc5)[C@H](C)O)cc4)C(C)C)cc3)cc2)C(C)C)cc1 [ASGPR-9-7] (5FAM-[dL][dP][dE][dS]F[X1][dF][dE][dK][dR]L[X1][dH][dS][dP][dR]V[X1][dP][dK][dY][dR]F[X1][dR][dF][dP][dV]G[X1][dL][dP][dR][dT]G-{NHCH2C6H4(4-CH2CONH2)}) | 150 nM
3 | CC(C)C[C@H](NC(=O)[C@@H](Cc1c[nH]cn1)NC(=O)[C@@H](CC(C)C)NC(=O)[C@H]1CCCN1C(=O)[C@@H](CC(N)=O)NC(=O)Cc1ccc(CNC(=O)[C@H](Cc2ccccc2)NC(=O)[C@@H](Cc2c[nH]cn2)NC(=O)[C@@H](CCCNC(=N)N)NC(=O)[C@@H](CC(N)=O)NC(=O)[C@@H](Cc2ccc(O)cc2)NC(=O)Cc2ccc(CNC(=O)[C@H](CC(C)C)NC(=O)[C@@H](CCCNC(=N)N)NC(=O)[C@@H](CCCCN)NC(=O)[C@@H](CCC(=O)O)NC(=O)[C@@H](Cc3ccccc3)NC(=O)Cc3ccc(CNC(=O)[C@H](Cc4ccccc4)NC(=O)[C@@H](CO)NC(=O)[C@@H](CCC(=O)O)NC(=O)[C@H]4CCCN4C(=O)[C@@H](CC(C)C)NC(=O)c4ccc5c(c4)C(=O)OC54c5ccc(O)cc5Oc5cc(O)ccc54)cc3)cc2)cc1)C(=O)NCc1ccc(CC(=O)N[C@H](CCCNC(=N)N)C(=O)N[C@H](Cc2ccccc2)C(=O)N2CCC[C@@H]2C(=O)N[C@@H](C(=O)NCC(=O)NCc2ccc(CC(=O)N[C@H](CC(C)C)C(=O)N3CCC[C@@H]3C(=O)N[C@H](CCCNC(=N)N)C(=O)N[C@@H](C(=O)NCC(=O)NCc3ccc(CC(N)=O)cc3)[C@H](C)O)cc2)C(C)C)cc1 [ASGPR-9-10] (5FAM-[dL][dP][dE][dS]F[X1][dF][dE][dK][dR]L[X1][dY][dN][dR][dH]F[X1][dN][dP][dL][dH]L[X1][dR][dF][dP][dV]G[X1][dL][dP][dR][dT]G-{NHCH2C6H4(4-CH2CONH2)}) | 97 nM
4 | CC(C)C[C@H](NC(=O)[C@@H](Cc1c[nH]c2ccccc12)NC(=O)[C@@H](CCC(=O)O)NC(=O)[C@@H](CO)NC(=O)[C@@H](CCCNC(=N)N)NC(=O)Cc1ccc(CNC(=O)[C@H](Cc2ccccc2)NC(=O)[C@@H](Cc2c[nH]cn2)NC(=O)[C@@H](CCCNC(=N)N)NC(=O)[C@@H](CC(N)=O)NC(=O)[C@@H](Cc2ccc(O)cc2)NC(=O)Cc2ccc(CNC(=O)[C@H](CC(C)C)NC(=O)[C@@H](CCCNC(=N)N)NC(=O)[C@@H](CCCCN)NC(=O)[C@@H](CCC(=O)O)NC(=O)[C@@H](Cc3ccccc3)NC(=O)Cc3ccc(CNC(=O)[C@H](Cc4ccccc4)NC(=O)[C@@H](CO)NC(=O)[C@@H](CCC(=O)O)NC(=O)[C@H]4CCCN4C(=O)[C@@H](CC(C)C)NC(=O)c4ccc5c(c4)C(=O)OC54c5ccc(O)cc5Oc5cc(O)ccc54)cc3)cc2)cc1)C(=O)NCc1ccc(CC(=O)N[C@H](CCCNC(=N)N)C(=O)N[C@H](Cc2ccccc2)C(=O)N2CCC[C@@H]2C(=O)N[C@@H](C(=O)NCC(=O)NCc2ccc(CC(=O)N[C@H](CC(C)C)C(=O)N3CCC[C@@H]3C(=O)N[C@H](CCCNC(=N)N)C(=O)N[C@@H](C(=O)NCC(=O)NCc3ccc(CC(N)=O)cc3)[C@H](C)O)cc2)C(C)C)cc1 [ASGPR-9-11] (5FAM-[dL][dP][dE][dS]F[X1][dF][dE][dK][dR]L[X1][dY][dN][dR][dH]F[X1][dR][dS][dE][dW]L[X1][dR][dF][dP][dV]G[X1][dL][dP][dR][dT]G-{NHCH2C6H4(4-CH2CONH2)}) | 0.22 nM

target: T2, IL-6R (Homo sapiens, UniProt P08887); assay: MST binding affinity of resynthesized NNP hits to IL-6R; conditions: read-out: MST (microscale thermophoresis) KD (nM) [95% conf. int]; IL-6R; ester versus amide amino acid-PAM bond polymers, library NNP2
T2 construct: purchased Creative Biomart IL6R-584H
T2 sequence (P08887 20-355 limits assumed): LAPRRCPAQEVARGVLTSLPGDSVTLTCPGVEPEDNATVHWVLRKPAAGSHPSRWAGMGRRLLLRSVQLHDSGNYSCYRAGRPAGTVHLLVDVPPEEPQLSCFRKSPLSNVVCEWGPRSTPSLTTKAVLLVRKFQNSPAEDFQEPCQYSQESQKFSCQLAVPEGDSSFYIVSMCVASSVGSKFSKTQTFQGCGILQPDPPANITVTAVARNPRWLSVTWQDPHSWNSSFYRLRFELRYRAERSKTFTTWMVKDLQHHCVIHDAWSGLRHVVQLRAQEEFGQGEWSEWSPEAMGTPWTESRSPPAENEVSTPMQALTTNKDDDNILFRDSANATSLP
Method: as §1

Row | SMILES | Kd
5 | CC(C)C[C@H](NC(=O)[C@@H](CCCNC(=N)N)NC(=O)[C@@H](C)NC(=O)Cc1ccc(COC(=O)[C@H](CC(C)C)NC(=O)[C@@H](CCCNC(=N)N)NC(=O)[C@@H](CCC(=O)O)NC(=O)Cc2ccc(COC(=O)[C@H](C)NC(=O)[C@@H](CCCCN)NC(=O)[C@@H](Cc3ccc(O)cc3)NC(=O)Cc3ccc(COC(=O)[C@H](C)NC(=O)[C@@H](CCCNC(=N)N)NC(=O)[C@@H](Cc4ccccc4)NC(=O)Cc4ccc(COC(=O)[C@H](Cc5ccccc5)NC(=O)[C@@H](CO)NC(=O)[C@@H](CCCNC(=N)N)NC(=O)Cc5ccc(COC(=O)[C@@H](NC(=O)[C@@H](CO)NC(=O)[C@@H](Cc6ccc(O)cc6)NC(=O)Cc6ccc(COC(=O)[C@H](Cc7ccccc7)NC(=O)[C@H](NC(=O)[C@@H](CC(N)=O)NC(=O)c7ccc8c(c7)C(=O)OC87c8ccc(O)cc8Oc8cc(O)ccc87)C(C)C)cc6)C(C)C)cc5)cc4)cc3)cc2)cc1)C(=O)OCc1ccc(CC(=O)N2CCC[C@@H]2C(=O)N[C@H](CCCNC(=N)N)C(=O)N[C@@H](C)C(=O)OCc2ccc(CC(=O)N[C@H](Cc3ccccc3)C(=O)N[C@H](CCCCN)C(=O)NCC(=O)OCc3ccc(CC(N)=O)cc3)cc2)cc1 [IL6R-93-12] | 3.7 nM
6 | CC(C)C[C@H](NC(=O)[C@@H](CCCNC(=N)N)NC(=O)[C@@H](C)NC(=O)Cc1ccc(COC(=O)[C@H](Cc2ccccc2)NC(=O)[C@@H](CCCNC(=N)N)NC(=O)[C@@H](CC(N)=O)NC(=O)Cc2ccc(COC(=O)[C@H](Cc3ccccc3)NC(=O)[C@@H](CCCCN)NC(=O)[C@@H](C)NC(=O)Cc3ccc(COC(=O)[C@H](CC(C)C)NC(=O)[C@@H](CCC(=O)O)NC(=O)[C@@H](CCCCN)NC(=O)Cc4ccc(COC(=O)[C@@H](NC(=O)[C@@H](CCC(=O)O)NC(=O)[C@@H](Cc5ccccc5)NC(=O)Cc5ccc(COC(=O)[C@H](CC(C)C)NC(=O)[C@@H](CCCNC(=N)N)NC(=O)[C@@H](CC(C)C)NC(=O)Cc6ccc(COC(=O)[C@H](Cc7ccccc7)NC(=O)[C@@H](Cc7c[nH]c8ccccc78)NC(=O)[C@@H](CCCNC(=N)N)NC(=O)c7ccc8c(c7)C(=O)OC87c8ccc(O)cc8Oc8cc(O)ccc87)cc6)cc5)C(C)C)cc4)cc3)cc2)cc1)C(=O)OCc1ccc(CC(=O)N[C@H](Cc2c[nH]c3ccccc23)C(=O)N[C@H](CCCCN)C(=O)N[C@@H](CC(C)C)C(=O)OCc2ccc(CC(=O)N[C@H](C)C(=O)N[C@@H](C(=O)N[C@@H](CC(C)C)C(=O)OCc3ccc(CC(N)=O)cc3)C(C)C)cc2)cc1 [IL6R-93-13] | 130 nM
